The results in this text go back to article PMC3433414, “Oral Administration of the Pimelic Diphenylamide HDAC Inhibitor HDACi 4b Is Unsuitable for Chronic Inhibition of HDAC Activity in the CNS In Vivo” (PLoS ONE, 2012).

Data set [1] addresses T1, human recombinant HDAC2 (Homo sapiens, UniProt Q92769).
T1 construct: purified recombinant human full length HDAC1 (cat# 50051), HDAC2 (cat# 50052); purchased BPS Bioscience (San Diego, CA) 50052
Briefly: Two-step fluorogenic deacetylase assay, recombinant HDAC2. Format: biochemical. The source says: (§1) To assess the biochemical and cellular potency of 4b and its conversion products/metabolites, we utilized the two-step fluorogenic assay which measures the HDAC-mediated catalytic conversion of synthetic acetylated lysine substrates. In brief, on deacetylation of the substrates by HDAC activity, a protease site is unmasked which allows subsequent trypsin-mediated cleavage and release of the highly flourescent AMC molecules in a subsequent step of the assay. The substrates used were Lys_Ac_AMC (Bachem I-1875) for HDAC3 and (Ac)Arg-Gly-Lys(Ac) (Bachem I-1925) for HDAC1 and HDAC2. […] However, the relatively labile and sterically more demanding trifluoracetyl group is readily hydrolyzed by the catalytically less avid Class IIa enzymes, allowing measurement of Class IIa activity using the 2-step fluorogenic assay. […]
(§2) For evaluation of the class selectivity of the compounds, we assessed inhibition against purified recombinant human full length HDAC1 (cat# 50051), HDAC2 (cat# 50052), HDAC3-NcoR2 (cat# 50003) and HDAC8 (cat# 50008): as representative of Class I activity; catalytic domain HDAC4(αα 648–1057), HDAC5 (αα 657–1123; cat # 50005), HDAC7 (αα 518-end; cat # 50007) and HDAC9 (αα 604–1066; cat # 50009) activity: representing all Class IIa activity; and full length HDAC6 (cat#50006): representing Class IIb activity. […]

Data set [2] has as its target T2, human recombinant HDAC1 (Homo sapiens, UniProt Q13547).
T2 construct: purified recombinant human full length HDAC1 (cat# 50051); purchased BPS Bioscience (San Diego, CA) 50051
Nature of the data set: Two-step fluorogenic deacetylase assay, recombinant HDAC1. Format: biochemical.
Source text: as §1, §2

In data set [3] the test system is P-glycoprotein (Pgp, MDR1). Briefly: Effective efflux ratio in MDR1-MDCK cells. The data set is classed as in vitro ADME. Particulars: human, pH 7.4; MDCK overexpressing MDR1. Here is the method:
The MDR1-MDCKII and wild type MDCKII cell lines (obtained from SOLVO Biotechnology) were cultured in accordance with the guidelines provided by SOLVO Biotechnology. Both wild-type MDCK and MDR1-MDCK cells were seeded at a cell density of 2.3×10^5 cells/well into 24-well Transwell plates and cultured for three days to form monolayers. Test compound was loaded into the donor compartments of the Transwell plate (24-well) bearing MDR1-MDCK or wild type MDCK monolayers. Test compound was added to either the apical or basolateral chambers of the Transwell plate assembly at a concentration of 10 µM in Hanks’ Balanced Salt Solution containing 25 mM HEPES (pH 7.4). Lucifer Yellow was added to the apical buffer in all wells and its permeation monitored to assess integrity of the cell layer. […]
After 1 h incubation at 37°C, aliquots were taken from both chambers and added to acetonitrile containing analytical internal standard (carbamazepine) in a 96-well plate. Concentrations of compound in the samples were measured by LC-MS/MS. Concentrations of LY in the samples were measured using a fluorescence plate reader.
The apparent permeability (Papp) values of test compound were determined for both the apical to basal (A>B) and basal to apical (B>A) permeation and the efflux ratio (B>A: A>B) determined in both the wild type MDCK and MDR1-MDCK cells. […]

T1 sequence (Q92769 whole entry): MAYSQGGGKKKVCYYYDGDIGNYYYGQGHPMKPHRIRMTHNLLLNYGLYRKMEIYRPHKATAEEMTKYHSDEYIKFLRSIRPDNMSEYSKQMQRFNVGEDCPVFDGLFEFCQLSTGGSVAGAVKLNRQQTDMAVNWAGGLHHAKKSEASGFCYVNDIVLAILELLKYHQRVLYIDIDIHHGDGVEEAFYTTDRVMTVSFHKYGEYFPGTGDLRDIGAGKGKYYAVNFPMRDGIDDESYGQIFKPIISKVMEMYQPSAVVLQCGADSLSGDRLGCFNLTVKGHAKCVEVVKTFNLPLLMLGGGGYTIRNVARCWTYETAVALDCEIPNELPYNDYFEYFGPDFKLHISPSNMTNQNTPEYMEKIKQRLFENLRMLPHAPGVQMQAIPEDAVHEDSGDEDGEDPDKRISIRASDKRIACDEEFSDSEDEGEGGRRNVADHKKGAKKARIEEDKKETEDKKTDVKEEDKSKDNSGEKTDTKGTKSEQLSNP
T2 sequence (Q13547 whole entry): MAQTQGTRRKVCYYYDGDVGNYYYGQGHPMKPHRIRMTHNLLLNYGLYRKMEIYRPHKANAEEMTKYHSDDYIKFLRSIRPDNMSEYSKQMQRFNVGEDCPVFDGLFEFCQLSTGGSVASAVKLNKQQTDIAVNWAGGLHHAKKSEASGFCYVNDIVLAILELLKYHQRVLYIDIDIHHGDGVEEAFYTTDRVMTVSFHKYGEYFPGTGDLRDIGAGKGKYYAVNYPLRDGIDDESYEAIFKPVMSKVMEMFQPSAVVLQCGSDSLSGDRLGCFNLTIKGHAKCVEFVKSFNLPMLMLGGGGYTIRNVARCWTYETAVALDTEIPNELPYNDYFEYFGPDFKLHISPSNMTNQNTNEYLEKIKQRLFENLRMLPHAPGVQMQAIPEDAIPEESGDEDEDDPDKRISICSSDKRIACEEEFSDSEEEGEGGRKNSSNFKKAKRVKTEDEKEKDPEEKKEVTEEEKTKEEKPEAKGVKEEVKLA

Consider `Nc1ccccc1NC(=O)CCCCCC(=O)Nc1ccccc1` [Compound 4b], for which the values for the IC50 in data set [1] and in data set [2] were 2230 nM and 1510 nM, respectively. In addition, in data set [3], the efflux ratio at 1 h, 10 µM was found to be 4.9.

As usually defined, the IC50 is the concentration that inhibits the measured activity by half. Broadly, the efflux ratio is the permeability from basolateral to apical divided by that in the opposite direction, in the common usage.
